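Assay format: 96-well plates, 48-hour exposure. GI50 = concentration required for 50% inhibition of growth. TGI: total growth inhibition.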
Key:
Assay in all cases: DTP human tumour cell line panel, 48 h
MDA-MB-435 = system: MDA-MB-435
PC-3 prostate = system: PC-3 prostate
RPMI-8226 leukemia = system: RPMI-8226 leukemia
OVCAR-8 ovarian = system: OVCAR-8 ovarian
HCC-2998 colon = system: HCC-2998 colon
SK-MEL-2 melanoma = system: SK-MEL-2 melanoma
COLO 205 colon = system: COLO 205 colon
SF-539 CNS = system: SF-539 CNS
SK-OV-3 ovarian = system: SK-OV-3 ovarian
M14 melanoma = system: M14 melanoma
ACHN renal = system: ACHN renal
SNB-75 CNS = system: SNB-75 CNS
KM12 colon = system: KM12 colon
HOP-62 NSCLC = system: HOP-62 NSCLC
UACC-62 melanoma = system: UACC-62 melanoma
OVCAR-4 ovarian = system: OVCAR-4 ovarian
MDA-MB-231 breast = system: MDA-MB-231 breast
SW-620 colon = system: SW-620 colon
T-47D breast = system: T-47D breast
RXF 393 renal = system: RXF 393 renal
SR leukemia = system: SR leukemia
SK-MEL-5 melanoma = system: SK-MEL-5 melanoma
OVCAR-3 ovarian = system: OVCAR-3 ovarian
MOLT-4 leukemia = system: MOLT-4 leukemia
CAKI-1 renal = system: CAKI-1 renal
NCI-H226 lung = system: NCI-H226 lung
SN12C renal = system: SN12C renal
DU-145 prostate = system: DU-145 prostate
HS 578T breast = system: HS 578T breast
A498 renal = system: A498 renal
HT29 colon = system: HT29 colon
HOP-92 NSCLC = system: HOP-92 NSCLC
SK-MEL-28 melanoma = system: SK-MEL-28 melanoma
K-562 leukemia = system: K-562 leukemia
U251 CNS = system: U251 CNS
SF-295 CNS = system: SF-295 CNS
SF-268 CNS = system: SF-268 CNS
LOX IMVI melanoma = system: LOX IMVI melanoma
MALME-3M melanoma = system: MALME-3M melanoma
TK-10 renal = system: TK-10 renal
UACC-257 melanoma = system: UACC-257 melanoma
SNB-19 CNS = system: SNB-19 CNS
HCT-15 colon = system: HCT-15 colon
NCI-H23 lung = system: NCI-H23 lung
UO-31 renal = system: UO-31 renal
786-0 renal = system: 786-0 renal
EKVX NSCLC = system: EKVX NSCLC
A549 NSCLC = system: A549 NSCLC
BT-549 breast = system: BT-549 breast
NCI/ADR-RES ovarian = system: NCI/ADR-RES ovarian
HCT-116 colon = system: HCT-116 colon
OVCAR-5 ovarian = system: OVCAR-5 ovarian
NCI-H522 lung = system: NCI-H522 lung
MCF7 breast = system: MCF7 breast
HL-60(TB) leukemia = system: HL-60(TB) leukemia
IGROV1 ovarian = system: IGROV1 ovarian
CCRF-CEM leukemia = system: CCRF-CEM leukemia
NCI-H460 lung = system: NCI-H460 lung

Structure (SMILES): OCc1cn(Cc2ccc(Cl)cc2)c2ccccc12
- GI50 (MDA-MB-435): 17.1 µM
- TGI (MDA-MB-435): 43.9 µM
- GI50 (PC-3 prostate): 15 µM
- TGI (PC-3 prostate): 47.1 µM
- GI50 (RPMI-8226 leukemia): 0.636 µM
- TGI (RPMI-8226 leukemia): 5.23 µM
- GI50 (OVCAR-8 ovarian): 4.36 µM
- TGI (OVCAR-8 ovarian): 40 µM
- GI50 (HCC-2998 colon): 4.09 µM
- TGI (HCC-2998 colon): 20.3 µM
- GI50 (SK-MEL-2 melanoma): 0.986 µM
- TGI (SK-MEL-2 melanoma): 6.72 µM
- GI50 (COLO 205 colon): 0.615 µM
- TGI (COLO 205 colon): 6.89 µM
- GI50 (SF-539 CNS): 11.5 µM
- TGI (SF-539 CNS): 27.8 µM
- GI50 (SK-OV-3 ovarian): 2.88 µM
- TGI (SK-OV-3 ovarian): 33.2 µM
- GI50 (M14 melanoma): 5.95 µM
- TGI (M14 melanoma): 22.1 µM
- GI50 (ACHN renal): 3.57 µM
- TGI (ACHN renal): 34.2 µM
- GI50 (SNB-75 CNS): 4.52 µM
- TGI (SNB-75 CNS): 19.9 µM
- GI50 (KM12 colon): 16.9 µM
- TGI (KM12 colon): 38.1 µM
- GI50 (HOP-62 NSCLC): 0.84 µM
- TGI (HOP-62 NSCLC): 21.7 µM
- GI50 (UACC-62 melanoma): 0.0565 µM
- TGI (UACC-62 melanoma): 0.601 µM
- GI50 (OVCAR-4 ovarian): 0.281 µM
- TGI (OVCAR-4 ovarian): 7.69 µM
- GI50 (MDA-MB-231 breast): 6.02 µM
- TGI (MDA-MB-231 breast): 25.6 µM
- GI50 (SW-620 colon): 0.811 µM
- TGI (SW-620 colon): 22.9 µM
- GI50 (T-47D breast): 0.0386 µM
- TGI (T-47D breast): 0.55 µM
- GI50 (RXF 393 renal): 0.424 µM
- TGI (RXF 393 renal): 4.44 µM
- GI50 (SR leukemia): 15.9 µM
- TGI (SR leukemia): 71.7 µM
- GI50 (SK-MEL-5 melanoma): 4.59 µM
- TGI (SK-MEL-5 melanoma): 18.6 µM
- GI50 (OVCAR-3 ovarian): 0.495 µM
- TGI (OVCAR-3 ovarian): 8.23 µM
- GI50 (MOLT-4 leukemia): 19.6 µM
- TGI (MOLT-4 leukemia): 54 µM
- TGI (CAKI-1 renal): 2.15 µM
- GI50 (NCI-H226 lung): < 0.01 µM
- TGI (NCI-H226 lung): 0.106 µM
- GI50 (SN12C renal): 4.66 µM
- TGI (SN12C renal): 21.6 µM
- GI50 (DU-145 prostate): 8.11 µM
- TGI (DU-145 prostate): 31.8 µM
- GI50 (HS 578T breast): 4.76 µM
- TGI (HS 578T breast): 25.6 µM
- GI50 (A498 renal): 0.0115 µM
- TGI (A498 renal): 0.0323 µM
- GI50 (HT29 colon): 1.35 µM
- TGI (HT29 colon): 17.8 µM
- GI50 (HOP-92 NSCLC): 3.03 µM
- TGI (HOP-92 NSCLC): 19.7 µM
- GI50 (SK-MEL-28 melanoma): 15.1 µM
- TGI (SK-MEL-28 melanoma): 44 µM
- GI50 (K-562 leukemia): 1.61 µM
- TGI (K-562 leukemia): 25.4 µM
- GI50 (U251 CNS): 2.62 µM
- TGI (U251 CNS): 22.6 µM
- GI50 (SF-295 CNS): 1.62 µM
- TGI (SF-295 CNS): 32.9 µM
- GI50 (SF-268 CNS): 12.3 µM
- TGI (SF-268 CNS): 36.7 µM
- GI50 (LOX IMVI melanoma): 4.26 µM
- TGI (LOX IMVI melanoma): 16.1 µM
- GI50 (MALME-3M melanoma): 8.68 µM
- TGI (MALME-3M melanoma): 30.5 µM
- GI50 (TK-10 renal): < 0.0115 µM
- TGI (TK-10 renal): 0.195 µM
- GI50 (UACC-257 melanoma): 0.22 µM
- TGI (UACC-257 melanoma): 0.517 µM
- GI50 (SNB-19 CNS): 15.8 µM
- TGI (SNB-19 CNS): 64.5 µM
- GI50 (HCT-15 colon): 3.44 µM
- TGI (HCT-15 colon): 28.5 µM
- GI50 (NCI-H23 lung): 3.85 µM
- TGI (NCI-H23 lung): 21.1 µM
- GI50 (UO-31 renal): 1.66 µM
- TGI (UO-31 renal): 13 µM
- GI50 (786-0 renal): 2.51 µM
- TGI (786-0 renal): 21.2 µM
- GI50 (EKVX NSCLC): 21.1 µM
- TGI (EKVX NSCLC): 60 µM
- GI50 (A549 NSCLC): 2.64 µM
- TGI (A549 NSCLC): 40.8 µM
- GI50 (BT-549 breast): 3.65 µM
- TGI (BT-549 breast): 17.5 µM
- GI50 (NCI/ADR-RES ovarian): 8.41 µM
- TGI (NCI/ADR-RES ovarian): 30.8 µM
- GI50 (HCT-116 colon): 0.0393 µM
- TGI (HCT-116 colon): 12 µM
- GI50 (OVCAR-5 ovarian): < 0.01 µM
- TGI (OVCAR-5 ovarian): 0.613 µM
- GI50 (NCI-H522 lung): 3.21 µM
- TGI (NCI-H522 lung): 14.8 µM
- GI50 (MCF7 breast): 0.105 µM
- TGI (MCF7 breast): 9.02 µM
- GI50 (HL-60(TB) leukemia): 3.9 µM
- TGI (HL-60(TB) leukemia): 21.4 µM
- GI50 (IGROV1 ovarian): < 0.0227 µM
- TGI (IGROV1 ovarian): 0.709 µM
- GI50 (CCRF-CEM leukemia): 2.2 µM
- TGI (CCRF-CEM leukemia): 16.8 µM
- GI50 (NCI-H460 lung): 0.124 µM
- TGI (NCI-H460 lung): 18.5 µM

— PubChem BioAssay (NCI)
